Source: PMC6429117, “Discovery of Galangin as a Potential DPP-4 Inhibitor That Improves Insulin-Stimulated Skeletal Muscle Glucose Uptake: A Combinational Therapy for Diabetes” (International Journal of Molecular Sciences, 2019)
pIC50: −log10 of the molar value.

Target: T1, dipeptidyl peptidase-4 (DPP-4) (Homo sapiens, UniProt P27487)
T1 construct: gene DPP4; recombinant human DPP-4 enzyme
Assay: fluorogenic enzyme inhibition assay (H-Gly-Pro-AMC cleavage, Sigma DPP-4 inhibitor screening kit)
Type: biochemical

T1 sequence (P27487 39-766): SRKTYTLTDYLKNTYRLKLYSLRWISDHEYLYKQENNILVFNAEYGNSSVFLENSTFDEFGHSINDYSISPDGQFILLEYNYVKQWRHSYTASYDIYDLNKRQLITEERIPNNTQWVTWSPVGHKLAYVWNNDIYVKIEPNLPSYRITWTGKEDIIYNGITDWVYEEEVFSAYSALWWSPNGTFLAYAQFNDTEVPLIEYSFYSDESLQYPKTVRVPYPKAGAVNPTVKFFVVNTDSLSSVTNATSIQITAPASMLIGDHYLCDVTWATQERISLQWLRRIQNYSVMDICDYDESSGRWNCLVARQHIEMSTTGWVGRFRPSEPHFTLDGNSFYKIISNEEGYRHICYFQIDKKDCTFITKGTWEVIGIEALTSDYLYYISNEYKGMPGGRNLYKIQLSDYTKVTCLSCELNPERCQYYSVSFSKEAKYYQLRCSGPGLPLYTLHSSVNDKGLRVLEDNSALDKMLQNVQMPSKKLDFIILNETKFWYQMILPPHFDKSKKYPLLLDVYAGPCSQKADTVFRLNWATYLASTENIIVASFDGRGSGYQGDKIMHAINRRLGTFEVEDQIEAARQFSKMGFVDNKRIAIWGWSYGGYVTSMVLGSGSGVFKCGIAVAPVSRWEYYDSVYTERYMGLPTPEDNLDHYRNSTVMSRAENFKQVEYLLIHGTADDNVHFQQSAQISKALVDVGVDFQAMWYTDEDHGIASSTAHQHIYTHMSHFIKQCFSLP

Compound: O=c1c(O)c(-c2ccccc2)oc2cc(O)cc(O)c12 [Galangin, 3,5,7-trihydroxyflavone]
- pIC50: 4.40
